From EP0450573A2, “Antibodies for the treatment and diagnosis of Pseudomonas aeruginosa infections” (priority 1990, dated 1991)

Test system: P. aeruginosa strain FI-6(A366)
Assay: Opsonophagocytic assay (bactericidal activity with complement and polymorphonuclear cells)
Format: cell-based
Conditions: cefepime alone, 0 µg/ml 6D7 data point of Figure 1
Description: Overnight cultures of P. aeruginosa FI-6 in adjusted Miller-Hinton broth containing 50 mg/l calcium chloride and 25 mg/l magnesium chloride were innoculated into media lacking or containing 1 µg/ml amikacin; this concentration of antibiotic allows almost normal growth of the bacterial culture. The bacterial cultures were incubated until mid-logarithmic phase of growth was attained, and then the bacteria were harvested by centrifugation, and resuspended to 5 x 10⁴ cells/ml in gelatin veronal buffer. […] Opsonic activity of antibodies directed against amikacin-treated bacteria was determined in the presence of 1 µg/ml amikacin. […] The amount of bacterial killing, was determined by plating 25 µl from each tube onto solid agar, growing the plated bacteria overnight, and counting the number of colonies on the plate. […]
The opsonophagocytic activity of varying amounts of monoclonal antibody 6D7 towards P. aeruginosa strain FI-6 cells was determined in the presence or absence of subinhibitory concentrations of the antibiotic, cefepime. […]

CO/N=C(\C(=O)N[C@@H]1C(=O)N2C(C(=O)[O-])=C(C[N+]3(C)CCCC3)CS[C@H]12)c1csc(N)n1 [cefepime]
survival: 100%
